Data published in patent US10189957B2, “Formulation process method to produce spray dried products” (ISP INVESTMENTS LLC, priority 2007, dated 2019).

Experiments:
[1] = Dissolution test, USP apparatus II (paddles), powders in size 1 hard gelatin capsules; assay type: physicochemical; settings: amount equivalent to 50 mg efavirenz, capsules with additional 15% croscarmellose sodium, 37° C.
Procedure: A. The dissolution properties of both amorphous compositions were tested and compared to crystalline EFV. An amount equivalent to 50 mg efavirenz was analyzed. Powders were hand-filled into size 1 hard gelatin capsules (Shinogi Qualicaps) with an additional 15% croscarmellose sodium (Ac-Di-Sol®, FMC BioPolymers). USP apparatus II (paddles) (VK 7010®, Varian Inc.) was used, with a bath temperature of 37° C. and a paddle speed of 50 rpm for 60 minutes.
B. Each of the amorphous powders from Examples 1 and 2 achieved higher rate of release and maximum aqueous concentration than the crystalline form (FIG. 6, Table 2). The initial rate of release from the amorphous powders was more than 10-times higher than the crystalline form.

[2] = Solubility in ethyl acetate at standard laboratory conditions; assay type: physicochemical; settings: about 25° C. and 1 atmosphere
Procedure: A dispersion was prepared containing 1 ezetimibe: 1 PVP K-12 at 1% total solids in ethyl acetate at standard laboratory conditions (about 25° C. and 1 atmosphere).

| extent of release ([1]; paddle speed 50 rpm for 60 minutes) [%] | rate of release, 0-15 min ([1]; paddle speed 50 rpm, 0-15 min) [mg/min] | solubility in ethyl acetate [2] | Structure (SMILES) |
| --- | --- | --- | --- |
| 10 | 0.13 |  | O=C1Nc2ccc(Cl)cc2[C@@](C#CC2CC2)(C(F)(F)F)O1 [crystalline EFV, efavirenz] |
|  |  | soluble | O=C1[C@H](CC[C@H](O)c2ccc(F)cc2)[C@@H](c2ccc(O)cc2)N1c1ccc(F)cc1 [ezetimibe] |
